Read-outs that look alike come from different tables or passages of the source.
Assays:
[1] = system: Bacillus subtilis 168; test: Bacterial growth in microscale cultivation, B. subtilis; assay type: cell-based; settings: for Lag Phase: relative to control
Protocol: (§1) The following bacteria were cultivated in the presence of trans-chalcone derived inhibitors: Corynebacterium glutamicum ATCC13032[43], Escherichia coli K-12 MG1655[44], Pseudomonas putida KT2440[45], and Bacillus subtilis 168[46]. The growth of these bacteria was monitored in flower-well plates shaken at 1200 rpm as backscatter at 620 nm (gain 20) using a BioLector® microscale cultivation system (m2p labs, Baesweiler, Germany). For further experimental details please refer to the Supplementary Information.
(§2) medium or the appropriate minimal medium and shaken at 140 rpm overnight. For inoculation of
(§3) the main culture, cells equivalent to an optical density at 600 nm of 0.5 (C. glutamicum, E. coli,
(§4) and P. putida) or 0.25 (B. subtilis) in 800 µL medium were washed and resuspended in fresh
(§5) media. Inhibitor substances were dissolved in DMSO and added to the media to a final
(§6) Since the least polar trans-chalcone and 2’-hydroxychalcone precipitated in the growth media at
(§7) the highest concentrations, the maximal concentration of these compounds was reduced to 400
(§8) µM and 100 µM, respectively. The final backscatter at 620 nm, the growth rate (h-1), and the
(§9) duration of the lag phase of all cultures were determined in a BioLector microscale cultivation
(§10) system in comparison to negative controls supplemented with the solvent DMSO. A longer lag

[2] = system: Corynebacterium glutamicum ATCC13032; test: Bacterial growth in microscale cultivation, C. glutamicum; assay type: cell-based; settings: for activity at 5 µM / activity at 50 µM / activity at 500 µM / activity at 100 µM: Corynebacterium glutamicum; for Lag Phase: relative to control
Protocol: as §1, §2, §3, §4, §5, §6, §7, §8, §9, §10

[3] = target: T1, F. trinervia PEPC (Flaveria trinervia, UniProt P30694); test: biochemical; assay type: biochemical
T1 construct: the full-length ppcA gene of PEPC from F. trinervia (EMBL-Bank X61304); made in house; host or cells: Escherichia coli BL21(DE3)
T1 sequence (P30694 1-966): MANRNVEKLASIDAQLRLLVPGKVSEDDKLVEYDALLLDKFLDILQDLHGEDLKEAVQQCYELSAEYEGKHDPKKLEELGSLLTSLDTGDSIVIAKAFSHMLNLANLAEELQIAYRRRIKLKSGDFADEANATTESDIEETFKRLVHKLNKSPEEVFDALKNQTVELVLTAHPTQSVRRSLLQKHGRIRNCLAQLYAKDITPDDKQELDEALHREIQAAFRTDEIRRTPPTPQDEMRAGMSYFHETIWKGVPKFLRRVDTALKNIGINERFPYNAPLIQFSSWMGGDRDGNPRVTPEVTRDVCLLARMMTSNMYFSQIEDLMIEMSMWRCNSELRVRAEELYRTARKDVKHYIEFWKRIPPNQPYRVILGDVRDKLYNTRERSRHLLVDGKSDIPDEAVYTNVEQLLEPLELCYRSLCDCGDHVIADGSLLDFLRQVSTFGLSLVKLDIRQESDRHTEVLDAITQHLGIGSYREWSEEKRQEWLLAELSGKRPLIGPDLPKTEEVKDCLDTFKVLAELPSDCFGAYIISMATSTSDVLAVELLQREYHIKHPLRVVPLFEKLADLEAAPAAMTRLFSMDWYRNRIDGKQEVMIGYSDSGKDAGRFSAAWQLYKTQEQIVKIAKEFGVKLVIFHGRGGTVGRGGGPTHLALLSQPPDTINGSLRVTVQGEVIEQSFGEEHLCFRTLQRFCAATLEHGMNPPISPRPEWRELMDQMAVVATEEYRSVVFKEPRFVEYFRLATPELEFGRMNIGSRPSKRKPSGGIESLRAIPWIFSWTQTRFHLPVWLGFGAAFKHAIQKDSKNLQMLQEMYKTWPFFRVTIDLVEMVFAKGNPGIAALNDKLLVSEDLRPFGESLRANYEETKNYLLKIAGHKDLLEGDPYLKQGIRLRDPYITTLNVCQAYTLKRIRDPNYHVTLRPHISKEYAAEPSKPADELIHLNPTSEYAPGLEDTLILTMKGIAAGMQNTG
Protocol: The IC50 values of small molecule compounds on F. pringlei and F. trinervia PEPCs were determined using PEPC coupled spectrophotometric assay. The amount of NADH oxidized by NADH-malate dehydrogenase was measured by the decrease in absorbance at 340 nm in a Beckman DU-800 spectrophotometer, thus the value is in proportion to the corresponding substrate conversion of the enzyme. […] The reactions were started by adding two folds of the Km value of PEP for each enzyme. The data were analyzed using GraFit (Erithacus Software, UK).

[4] = system: Escherichia coli K-12 MG1655; test: Bacterial growth in microscale cultivation, E. coli; assay type: cell-based; settings: for activity at 5 µM / activity at 50 µM / activity at 500 µM: Escherichia coli; for Lag Phase: relative to control
Protocol: as §1, §2, §3, §4, §5, §6, §7, §8, §9, §10

O=C(/C=C/c1ccccc1)c1ccccc1O [Compound 2, 2′-Hydroxychalcone]
activity at 5 µM ([1]; Bacillus subtilis, 168, read-out: Final Backscatter, complex medium, 5 µM, relative to control): 96.4% | activity at 50 µM ([1]; Bacillus subtilis, 168, read-out: Final Backscatter, complex medium, 50 µM, relative to control): 97.6% | activity at 100 µM ([1]; Bacillus subtilis, 168, read-out: Final Backscatter, complex medium, 100 µM, relative to control): 112% | activity at 500 µM ([1]; Bacillus subtilis, 168, read-out: Final Backscatter, complex medium, 500 µM, relative to control): 75.6% | activity at 5 µM ([1]; Bacillus subtilis, 168, read-out: Final Backscatter, minimal medium, 5 µM, relative to control): 97.9% | activity at 50 µM ([1]; Bacillus subtilis, 168, read-out: Final Backscatter, minimal medium, 50 µM, relative to control): 95.5% | activity at 100 µM ([1]; Bacillus subtilis, 168, read-out: Final Backscatter, minimal medium, 100 µM, relative to control): 101% | activity at 500 µM ([1]; Bacillus subtilis, 168, read-out: Final Backscatter, minimal medium, 500 µM, relative to control): 70% | activity at 5 µM ([1]; Bacillus subtilis, 168, read-out: Growth rate, complex medium, 5 µM, relative to control): 91.2% | activity at 50 µM ([1]; Bacillus subtilis, 168, read-out: Growth rate, complex medium, 50 µM, relative to control): 97.7% | activity at 100 µM ([1]; Bacillus subtilis, 168, read-out: Growth rate, complex medium, 100 µM, relative to control): 118% | activity at 5 µM ([1]; Bacillus subtilis, 168, read-out: Growth rate, minimal medium, 5 µM, relative to control): 96.8% | activity at 50 µM ([1]; Bacillus subtilis, 168, read-out: Growth rate, minimal medium, 50 µM, relative to control): 113% | activity at 100 µM ([1]; Bacillus subtilis, 168, read-out: Growth rate, minimal medium, 100 µM, relative to control): 134% | activity at 500 µM ([1]; Bacillus subtilis, 168, read-out: Growth rate, minimal medium, 500 µM, relative to control): 98.7% | Lag Phase ([1]; complex medium, 5 µM): 89,8% | Lag Phase ([1]; complex medium, 50 µM): 100,0% | Lag Phase ([1]; complex medium, 100 µM): 95,4% | Lag Phase ([1]; minimal medium, 5 µM): 99,5% | Lag Phase ([1]; minimal medium, 50 µM): 108,5% | Lag Phase ([1]; minimal medium, 100 µM): 107,8% | Lag Phase ([1]; minimal medium, 500 µM): 143,1% | activity at 5 µM ([2]; ATCC13032, read-out: Final Backscatter, complex medium, 5 µM, relative to control): 101% | activity at 50 µM ([2]; ATCC13032, read-out: Final Backscatter, complex medium, 50 µM, relative to control): 105% | activity at 500 µM ([2]; ATCC13032, read-out: Final Backscatter, complex medium, 500 µM, relative to control): 111% | activity at 5 µM ([2]; ATCC13032, read-out: Final Backscatter, minimal medium, 5 µM, relative to control): 102% | activity at 50 µM ([2]; ATCC13032, read-out: Final Backscatter, minimal medium, 50 µM, relative to control): 99.6% | activity at 100 µM ([2]; ATCC13032, read-out: Final Backscatter, minimal medium, 100 µM, relative to control): 101% | activity at 500 µM ([2]; ATCC13032, read-out: Final Backscatter, minimal medium, 500 µM, relative to control): 102% | activity at 5 µM ([2]; ATCC13032, read-out: Growth rate, complex medium, 5 µM, relative to control): 96.2% | activity at 50 µM ([2]; ATCC13032, read-out: Growth rate, complex medium, 50 µM, relative to control): 91.5% | activity at 500 µM ([2]; ATCC13032, read-out: Growth rate, complex medium, 500 µM, relative to control): 102% | activity at 5 µM ([2]; ATCC13032, read-out: Growth rate, minimal medium, 5 µM, relative to control): 101% | activity at 50 µM ([2]; ATCC13032, read-out: Growth rate, minimal medium, 50 µM, relative to control): 99.6% | activity at 100 µM ([2]; ATCC13032, read-out: Growth rate, minimal medium, 100 µM, relative to control): 101% | activity at 500 µM ([2]; ATCC13032, read-out: Growth rate, minimal medium, 500 µM, relative to control): 92.9% | Lag Phase ([2]; complex medium, 5 µM): 98,4% | Lag Phase ([2]; complex medium, 50 µM): 100,0% | Lag Phase ([2]; complex medium, 500 µM): 101,1% | Lag Phase ([2]; minimal medium, 5 µM): 98,7% | Lag Phase ([2]; minimal medium, 50 µM): 102,6% | Lag Phase ([2]; minimal medium, 100 µM): 104,2% | Lag Phase ([2]; minimal medium, 500 µM): 124,3% | Selectivity C4/C3 ([3]; C4 PEPC over C3 isoform): 1.5 fold | IC50 ([3]; IC50 F. trinervia PEPC, C4 PEPC): 51.9 ± 15 µM | activity at 5 µM ([4]; MG1655, read-out: Final Backscatter, complex medium, 5 µM, relative to control): 100% | activity at 50 µM ([4]; MG1655, read-out: Final Backscatter, complex medium, 50 µM, relative to control): 103% | activity at 500 µM ([4]; MG1655, read-out: Final Backscatter, complex medium, 500 µM, relative to control): 98.1% | activity at 5 µM ([4]; MG1655, read-out: Final Backscatter, minimal medium, 5 µM, relative to control): 100% | activity at 50 µM ([4]; MG1655, read-out: Final Backscatter, minimal medium, 50 µM, relative to control): 97% | activity at 500 µM ([4]; MG1655, read-out: Final Backscatter, minimal medium, 500 µM, relative to control): 101% | activity at 5 µM ([4]; MG1655, read-out: Growth rate, complex medium, 5 µM, relative to control): 97.7% | activity at 50 µM ([4]; MG1655, read-out: Growth rate, complex medium, 50 µM, relative to control): 86.6% | activity at 5 µM ([4]; MG1655, read-out: Growth rate, minimal medium, 5 µM, relative to control): 102% | activity at 50 µM ([4]; MG1655, read-out: Growth rate, minimal medium, 50 µM, relative to control): 105% | Lag Phase ([4]; complex medium, 5 µM): 95,5% | Lag Phase ([4]; complex medium, 50 µM): 100,0% | Lag Phase ([4]; minimal medium, 5 µM): 89,4% | Lag Phase ([4]; minimal medium, 50 µM): 91,6%

From article PMC4893628, “Chalcone-based Selective Inhibitors of a C4 Plant Key Enzyme as Novel Potential Herbicides” (Scientific Reports, 2016)
